Assay results taken from the supplement of paper PMC10307832.

How the values were obtained:
Assay in all cases: relative viability (nuclei count vs DMSO), 5 days (fraction); higher = more cells survive
QS11 + Tozasertib = compound: C1CC2=C(C1)C=C(C=C2)OC3=NC(=C4C(=N3)N(C=N4)CC5=CC=C(C=C5)C6=CC=CC=C6)N[C@@H](CC7=CC=CC=C7)CO [QS11] + Cc1cc(Nc2cc(N3CCN(C)CC3)nc(Sc3ccc(NC(=O)C4CC4)cc3)n2)n[nH]1 [Tozasertib] (partner 0.1 µM)
Summary of the method: (§1)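 Relative viability is defined as nuclei in treated wells over nuclei in vehicle wells. Duplicate plates were run and medians reported. Lung cancer cell lines in 1536-well plates were dosed by pin tool one day after seeding, with one drug or with a fixed anchor-drug dose plus five library-drug doses (not always all listed) in √10 steps, and nuclei were counted after 5 days.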

[1] = compound: C[As](C)SC[C@H](NC(=O)CC[C@H](N)C(=O)O)C(=O)NCC(=O)O [Darinaparsin] + CC(C)C[C@H](NC(=O)[C@H](Cc1ccccc1)NC(=O)c1cnccn1)B(O)O [Bortezomib] (partner 0.002 µM)
Summary of the method: as §1

[2] = compound: C[As](C)SC[C@H](NC(=O)CC[C@H](N)C(=O)O)C(=O)NCC(=O)O [Darinaparsin] + CS(=O)(=O)N1CCN(Cc2cc3nc(-c4cccc5[nH]ncc45)nc(N4CCOCC4)c3s2)CC1 [Pictilisib] (partner 1 µM)
Summary of the method: as §1

Darinaparsin + Olaparib = compound: C[As](C)SC[C@H](NC(=O)CC[C@H](N)C(=O)O)C(=O)NCC(=O)O [Darinaparsin] + O=C(c1cc(Cc2n[nH]c(=O)c3ccccc23)ccc1F)N1CCN(C(=O)C2CC2)CC1 [Olaparib] (partner 8 µM)
Summary of the method: as §1

Row | Cell Line | relative viability (QS11 + Tozasertib; first compound 0.08 µM) | relative viability (QS11 + Tozasertib; first compound 0.253 µM) | relative viability (QS11 + Tozasertib; first compound 0.8 µM) | relative viability (QS11 + Tozasertib; first compound 2.53 µM) | relative viability (QS11 + Tozasertib; first compound 8 µM) | relative viability ([1]; first compound 0.08 µM) | relative viability ([1]; first compound 0.8 µM) | relative viability ([1]; first compound 2.53 µM) | relative viability ([1]; first compound 8 µM) | relative viability ([2]; first compound 0.08 µM) | relative viability ([2]; first compound 0.8 µM) | relative viability ([2]; first compound 2.53 µM) | relative viability ([2]; first compound 8 µM) | relative viability (Darinaparsin + Olaparib; first compound 0.08 µM) | relative viability (Darinaparsin + Olaparib; first compound 0.8 µM) | relative viability (Darinaparsin + Olaparib; first compound 2.53 µM) | relative viability (Darinaparsin + Olaparib; first compound 8 µM)
1 | PC-14 | 0.552 | 0.575 | 0.487 | 0.652 | 0.602 | 0.925 | 0.77 | 0.753 | 1.11 | 1.15 | 0.823 | 0.566 | 0.752 | 0.234 | 0.261 | 0.222 | 0.225
2 | EPLC-272H |  | 0.17 | 0.258 | 0.248 | 0.292 | 1.07 | 0.969 | 0.74 | 0.9 | 0.295 | 0.332 | 0.266 | 0.311 | 0.659 | 0.958 | 0.514 | 0.615
3 | NCI-H2228 | 0.195 | 0.241 | 0.309 | 0.296 | 0.289 | 1.63 | 1.12 | 0.975 | 1.13 | 0.401 | 0.344 | 0.473 | 0.544 | 0.746 | 0.74 | 0.693 | 0.944
4 | LC-2-ad | 0.445 | 0.471 | 0.476 | 0.507 | 0.439 | 1.2 | 1.02 | 0.951 | 1.33 | 0.564 | 0.456 | 0.32 | 0.533 | 0.739 | 0.748 | 0.669 | 0.719
5 | Calu-6 |  |  |  |  |  | 1.04 | 0.968 | 0.949 | 0.945 | 1.2 | 0.801 | 0.924 | 0.988 | 0.592 | 0.59 | 0.594 | 0.556
6 | SK-MES-1 | 1.04 | 0.906 | 0.833 | 0.905 | 0.745 |  |  |  |  | 0.354 | 0.353 | 0.336 | 0.401 | 0.888 | 0.66 | 0.662 | 0.474
7 | NCI-H1623 | 0.449 | 0.546 | 0.427 | 0.466 | 0.434 |  |  |  |  |  |  |  |  |  |  |  | 
8 | SW 900 | 0.573 | 0.479 | 0.521 | 0.408 | 0.296 |  |  |  |  |  |  |  |  | 0.837 |  | 0.85 | 0.773
9 | NCI-H1944 | 0.258 | 0.274 |  | 0.271 | 0.24 |  |  |  |  | 0.359 | 0.307 | 0.348 | 0.374 | 0.458 | 0.44 | 0.363 | 0.404
10 | LK-2 | 0.177 | 0.194 | 0.181 | 0.173 | 0.19 |  |  |  |  | 0.634 |  | 0.547 | 0.564 | 0.727 | 0.546 | 0.644 | 0.731
11 | NCI-H2342 | 0.479 | 0.46 | 0.62 | 0.474 | 0.436 |  |  |  |  |  |  |  |  | 0.484 | 0.398 | 0.461 | 0.415
12 | NCI-H1703 |  |  |  |  |  | 0.317 | 0.338 | 0.39 | 0.33 | 0.236 | 0.271 | 0.261 | 0.268 | 0.5 | 0.587 | 0.389 | 0.516
13 | NCI-H1563 |  |  |  |  |  | 0.831 | 0.862 | 0.828 | 0.93 | 0.693 | 0.63 | 0.594 | 0.602 |  |  |  | 
14 | NCI-H1299 |  |  |  |  |  | 1.01 | 0.99 | 1.03 | 1.04 | 1.03 | 0.882 | 0.751 | 0.808 | 1.02 | 0.928 | 0.98 | 0.981
15 | NCI-H2170 | 0.803 | 0.662 | 0.671 | 0.742 | 0.721 |  |  |  |  | 0.305 | 0.279 | 0.316 | 0.297 | 0.722 | 0.662 | 0.614 | 0.543
16 | NCI-H522 | 0.494 | 0.616 | 0.47 | 0.627 | 1.58 |  |  |  |  |  |  |  |  | 0.621 | 0.718 | 0.703 | 0.543
17 | NCI-H1648 |  | 0.577 |  | 0.396 | 0.642 |  |  |  |  |  |  |  |  |  | 0.765 |  | 1.05
18 | NCI-H1792 |  |  |  |  |  | 1.69 | 1.03 | 0.652 | 1.03 | 0.169 | 0.235 | 0.243 | 0.356 | 0.412 | 0.496 |  | 0.368
19 | A549 |  |  |  |  |  |  |  |  |  | 0.601 | 0.517 | 0.344 | 0.653 | 0.416 | 0.337 | 0.31 | 0.471
20 | NCI-H358 | 0.099 | 0.106 | 0.108 | 0.101 | 0.109 |  |  |  |  | 0.315 | 0.319 | 0.343 | 0.319 | 0.701 | 0.61 | 0.585 | 0.569
21 | NCI-H1793 | 0.305 | 0.328 | 0.257 | 0.32 | 0.338 |  |  |  |  | 0.25 | 0.31 | 0.355 | 0.299 | 1 | 0.832 |  | 1.03
22 | NCI-H1395 | 0.728 | 0.697 | 0.748 | 0.686 | 0.72 |  |  |  |  | 0.538 | 0.617 | 0.619 | 0.568 | 0.457 | 0.441 | 0.407 | 0.404
23 | EBC-1 |  |  |  |  |  | 0.473 | 0.559 | 0.471 | 0.507 | 0.393 | 0.359 | 0.433 | 0.288 | 0.811 | 0.731 | 0.603 | 0.511
24 | IA-LM |  |  |  |  |  | 0.893 | 1.08 | 1.32 | 1.01 | 0.414 | 0.408 | 0.949 | 0.313 | 0.93 | 0.936 | 0.982 | 0.884
